Assay results as given in patent US20040219158A1, “Compositions and methods for diagnosis and therapy of medical conditions involving infection with pseudomonas bacteria” (priority 2003, published 2004).

Target: PA-IIL lectin (Pseudomonas aeruginosa, UniProt Q9HYN5)
Assay: Inhibition of binding of HRP-labeled fucosylated polymer (Fuc-PAA-biotin) to immobilized PA-IIL lectin
Description: Biotinylated polymers of Fucose (Fuc-PAA-biotin, GlycoTech Corp.) are allowed to couple HRP-labeled streptavidin (KPL labs) overnight at 4° C. PA-IIL lectin is immobilized in plastic microtiter wells and allowed to react with the HRP-labeled fucosylated polymer. Binding is detected by TMB substrate followed by color development with 1 M H3PO4 (FIG. 20). Conditions chosen for the assay are coating with 3 μg/ml PA-IIL and incubation of inhibitor with 2 μg/ml of fucosylated polymer.

PA-IIL lectin, sequence (Q9HYN5 entry or part of it): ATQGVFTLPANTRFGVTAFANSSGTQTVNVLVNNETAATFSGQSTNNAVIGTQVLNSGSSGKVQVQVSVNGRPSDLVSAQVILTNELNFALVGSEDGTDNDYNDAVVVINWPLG

Structure (SMILES) | IC50 | inhibition of PA-IIL lectin (negative control saccharide, data not shown)
O=C[C@@H](O)[C@@H](O)[C@H](O)[C@H](O)CO [Mannose] | 95 µM | 
O=C[C@H](O)[C@@H](O)[C@@H](O)[C@H](O)CO [Galactose] |  | no inhibition
